Assay results reported in patent US20180132483A1, “Method of Controlling Phytoparasitic Pests, Agrochemical Composition and Use Thereof” (priority 2016, published 2018).

System: soil Fusarium sp.
Assay: Activity against soil Fusarium sp.

CC(=O)O.CCCCCCCCCCCCNC(=N)N [dodine, 1-dodecylguanidinium acetate] was tested, and the “Activity against soil Fusarium sp.” value was “active”.
